Test [1] deals with phenylquinone-induced writhing in mice. Kind of test: Phenylquinone Writhing Test. The format is in vivo, female white mice. To be noted: Mus musculus, read-out: Phenylquinone Writhing ED50. As to the method: A standard procedure for detecting and comparing the analgesic activity of compounds in this series for which there is a good correlation with human efficacy is the standard phenylquinone writhing test modified from Siegmund, et al., Proc. Soc. Exp. Biol. Med., 95, 729 (1957). A test compound suspended in 1% methylcellulose was given orally to fasted (17-21 hours) female white mice, 5-20 animals per double blind test. Aqueous (0.01% phenyl-p-benzoquinone) phenylquinone, 0.20 ml per mouse, was injected intraperitoneally 6 minutes before observations were begun. […] The effective analgesic dose for 50% of the mice (ED50) was calculated by the moving average method of Thompson, W. R., Bact. Rev., 11, 115-145 (1947); the time of peak activity was determined for many of the compounds. Data for some of the compounds is summarized in Tables II and III together with data for some standard analgetic antiinflammatory drugs.

Test [2] concerns adjuvant-induced arthritis in rats. Kind of test: Established Adjuvant-Induced Arthritis in Rats. The format is in vivo, Charles River Lewis male rats. The note with it: for ED50: 168 h, read-out: Adjuvant Arthritis ED50 % Decrease From Control Paw Volume.
The mark [3] stands for this setting: daily oral dose 45 mg/kg, 7 days, rat, footnote 1 p < .001, footnote 2 p < .05 vs control.
Where [4] appears, read: Table III, oral daily, 7 days, rat, from dose-response regression lines.
Setting [5] is: Table III, oral, fasted female white mice.

Like-named read-outs stand apart in the source and are kept apart here.

By ED50 is commonly meant the midpoint of the dose-response relation.

Consider `CC(=O)Oc1ccccc1C(=O)O` [Aspirin, reference compound], for which the ED50 in test [1] (po) amounted to 135 mg/kg.
For `COc1ccc(-c2cc([Si](C)(C)C)sc2-c2ccc(OC)cc2)cc1` [Example 1, 2,3-Bis(4-methoxyphenyl)-5-(trimethylsilyl)thiophene], the ED50 in test [2] (Rattus norvegicus, po) amounted to 8 mg/kg; in test [1] (po) it was 0.19 mg/kg.
On to `COc1ccc(-c2cc([SiH](C)C)sc2-c2ccc(OC)cc2)cc1` [Example 2, 2,3-Bis(4-methoxyphenyl)-5-(dimethylsilyl)thiophene], for which the ED50 was found to be 14.5 mg/kg in test [2] (Rattus norvegicus, po) and 2.1 mg/kg in test [1] (po).
For the compound `C[Si](C)(C)c1cc(-c2ccc(F)cc2)c(-c2ccc(F)cc2)s1` [Example 3], the “Adjuvant Arthritis Percent Decrease From Control Paw Volume” value in test [2] (daily oral dose 27 mg/kg, 7 days, rat, p < .001 vs control (Student's t)) is recorded as 37%. In addition, the ED50 in test [1] (po) is 4.5 mg/kg.
As for `C[Si](C)(C)c1cc(-c2ccccc2)c(-c2ccccc2)s1` [Example 4], the ED50 in test [2] (Rattus norvegicus, po) worked out at 45 mg/kg; in test [1] (po), 15 mg/kg.
As to `Cc1ccc(-c2cc([Si](C)(C)C)sc2-c2ccc(C)cc2)cc1` [Example 5], in test [2] (setting [3]), the “Adjuvant Arthritis Percent Decrease From Control Paw Volume” value worked out at 44%. The ED50 in test [1] (po) worked out at 135 mg/kg.
For `CSc1ccc(-c2sc([Si](C)(C)C)cc2-c2ccc(F)cc2)cc1` [Example 6], the “Adjuvant Arthritis Percent Decrease From Control Paw Volume” value in test [2] (daily oral dose 81 mg/kg, 7 days, rat, p < .001 vs control (Student's t)) worked out at 42%.
With `C=C[Si](C)(C)c1cc(-c2ccc(OC)cc2)c(-c2ccc(OC)cc2)s1` [Example 7, 2,3-bis(4-methoxyphenyl)-5-(ethenyldimethylsilyl)thiophene], the ED50 in test [2] (Rattus norvegicus, po) was 6.8 mg/kg; in test [1] (po) it was 0.23 mg/kg.
For `C=CC[Si](C)(C)c1cc(-c2ccc(OC)cc2)c(-c2ccc(OC)cc2)s1` [Example 8, 2,3-bis(4-methoxyphenyl)-5-[(2-propenyl)dimethylsilyl]thiophene], in that order: 9.4 mg/kg and 0.76 mg/kg.
With `COc1ccc(-c2cc([Si](C)(C)CCC(F)(F)F)sc2-c2ccc(OC)cc2)cc1` [Example 9], the ED50 in test [2] (Rattus norvegicus, po) turned out to be 30 mg/kg.
In the case of `CC[Si](CC)(CC)c1cc(-c2ccc(OC)cc2)c(-c2ccc(OC)cc2)s1` [Example 10], the 50% effective dose (ED50) amounted to 25 mg/kg in test [2] (Rattus norvegicus, po) and 5.2 mg/kg in test [1] (po).
For `COc1ccc(-c2cc([Si](C)(C)C(C)(C)C)sc2-c2ccc(OC)cc2)cc1` [Example 11], in that order: 40 mg/kg and > 108 mg/kg.
Regarding `COc1ccc(-c2cc([Si](C)(C)c3ccccc3)sc2-c2ccc(OC)cc2)cc1` [Example 12], the ED50 in test [2] (Rattus norvegicus, po) is 55 mg/kg; in test [1] (po), < 108 mg/kg.
For `COc1ccc(-c2cc([Si](C)(C)Cc3ccccc3)sc2-c2ccc(OC)cc2)cc1` [Example 13], in test [2] (setting [3]), the “Adjuvant Arthritis Percent Decrease From Control Paw Volume” value turned out to be 24%.
For the compound `COc1ccc(-c2cc([Si](C)(C)OC)sc2-c2ccc(OC)cc2)cc1` [Example 21, 2,3-Bis(4-methoxyphenyl)-5-(methoxydimethylsilyl)thiophene], the ED50 in test [2] (Rattus norvegicus, po) amounted to 9.8 mg/kg; in test [1] (po), 3.8 mg/kg.
On to `CC(C)Cc1ccc(C(C)C(=O)O)cc1` (centres unmarked) [Ibuprofen, reference compound], for which the ED50 was determined as 100 mg/kg in test [2] (setting [4]) and 10 mg/kg in test [1] (setting [5]).
Turning to `COc1ccc2c(c1)c(CC(=O)O)c(C)n2C(=O)c1ccc(Cl)cc1` [Indomethacin, reference compound], the ED50 worked out at 0.3 mg/kg in test [2] (Rattus norvegicus, po) and 0.35 mg/kg in test [1] (po).
As for `CCCCC1C(=O)N(c2ccccc2)N(c2ccccc2)C1=O` [Phenylbutazone, reference compound], the ED50 in test [2] (setting [4]) worked out at 10 mg/kg; in test [1] (setting [5]), 80 mg/kg.

The values above are taken from patent US4432974A, “Antiinflammatory and/or analgesic 2,3-diaryl-5-silyl thiophenes” (E. I. Du Pont de Nemours and Company, priority 1982, dated 1984).
